Test results reported in ChEMBL document CHEMBL3039007, “Structure-based identification of OATP1B1/3 inhibitors” (Mol Pharmacol, 2013).
Positions of bridges follow the written chain, without caps; N, C: chain ends. Non-standard residues stand in square brackets, D forms with d. Residues, ends and D or L forms follow the SMILES beside them. *: point of attachment. Ileψ(thiazoline)Cys = CC[C@H](C)[C@H](N)C1=N[C@H](C(=O)*)CS1; dOrn = NCCC[C@@H](N)C(=O)O

Tests used:
[1] = target: T1, Solute carrier organic anion transporter family member 1B3 (Homo sapiens, UniProt Q9NPD5); settings: chinese hamster, cho, 10 µM
T1 sequence (Q9NPD5 whole entry): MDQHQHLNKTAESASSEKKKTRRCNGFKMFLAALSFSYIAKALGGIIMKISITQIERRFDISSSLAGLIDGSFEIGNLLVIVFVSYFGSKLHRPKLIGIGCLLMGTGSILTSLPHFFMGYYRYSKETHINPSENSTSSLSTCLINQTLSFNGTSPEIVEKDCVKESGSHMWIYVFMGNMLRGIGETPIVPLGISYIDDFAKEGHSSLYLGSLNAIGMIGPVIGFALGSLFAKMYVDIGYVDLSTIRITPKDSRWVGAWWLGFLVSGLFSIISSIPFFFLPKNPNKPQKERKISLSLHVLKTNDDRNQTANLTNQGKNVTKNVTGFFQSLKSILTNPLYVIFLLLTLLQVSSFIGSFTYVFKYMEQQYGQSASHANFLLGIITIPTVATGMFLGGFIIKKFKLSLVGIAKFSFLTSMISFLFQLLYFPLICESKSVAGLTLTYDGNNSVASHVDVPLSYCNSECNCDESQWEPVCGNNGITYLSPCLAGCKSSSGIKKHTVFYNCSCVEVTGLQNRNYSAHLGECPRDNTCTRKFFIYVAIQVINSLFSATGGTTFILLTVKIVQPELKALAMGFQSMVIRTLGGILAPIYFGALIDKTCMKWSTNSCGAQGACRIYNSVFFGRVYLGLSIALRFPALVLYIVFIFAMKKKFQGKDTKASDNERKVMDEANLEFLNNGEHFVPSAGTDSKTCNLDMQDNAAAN

[2] = target: T2, Solute carrier organic anion transporter family member 1B1 (Homo sapiens, UniProt Q9Y6L6); settings: chinese hamster, cho, 10 µM
T2 sequence (Q9Y6L6 whole entry): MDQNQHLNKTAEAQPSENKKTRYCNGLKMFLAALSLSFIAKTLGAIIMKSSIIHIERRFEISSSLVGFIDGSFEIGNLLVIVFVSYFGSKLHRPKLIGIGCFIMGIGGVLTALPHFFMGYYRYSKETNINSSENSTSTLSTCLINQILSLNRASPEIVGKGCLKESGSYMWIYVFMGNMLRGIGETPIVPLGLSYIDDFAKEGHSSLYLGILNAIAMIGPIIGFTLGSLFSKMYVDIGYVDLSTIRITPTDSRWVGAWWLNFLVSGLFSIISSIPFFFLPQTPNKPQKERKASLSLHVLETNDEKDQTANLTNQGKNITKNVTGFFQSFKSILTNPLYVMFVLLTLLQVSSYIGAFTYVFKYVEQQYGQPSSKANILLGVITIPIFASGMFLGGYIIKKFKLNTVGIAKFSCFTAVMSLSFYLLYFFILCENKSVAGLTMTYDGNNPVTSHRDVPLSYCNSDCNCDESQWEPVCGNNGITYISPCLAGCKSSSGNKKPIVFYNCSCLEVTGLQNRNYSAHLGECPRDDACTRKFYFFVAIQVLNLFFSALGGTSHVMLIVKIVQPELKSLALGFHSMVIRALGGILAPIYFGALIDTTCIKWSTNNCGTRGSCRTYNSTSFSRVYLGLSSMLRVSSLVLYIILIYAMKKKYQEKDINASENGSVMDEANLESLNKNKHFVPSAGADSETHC

| Compound | residual activity [1] [%] | residual activity [2] [%] |
| --- | --- | --- |
| CC(C)(C)CC(C)(C)c1ccc(O)c(Cc2ccc(Cl)cc2Cl)c1 [CLOFOCTOL] | 76.53 | 77.9 |
| CN(C)C(=O)C(CCN1CCC(O)(c2ccc(Cl)cc2)CC1)(c1ccccc1)c1ccccc1.Cl [LOPERAMIDE HYDROCHLORIDE] | 94.1 | 51.98 |
| O=C(O[C@@H]1Cc2c(O)cc(O)cc2O[C@@H]1c1cc(O)c(O)c(O)c1-c1c([C@H]2Oc3cc(O)cc(O)c3C[C@H]2OC(=O)c2cc(O)c(O)c(O)c2)cc(O)c(O)c1O)c1cc(O)c(O)c(O)c1 [THEASINENSIN A] | 94.99 | 61.1 |
| CN1CCCN=C1/C=C/c1cccs1.O=C(O)c1cc2ccccc2c(Cc2c(O)c(C(=O)O)cc3ccccc23)c1O [PYRANTEL PAMOATE] | 34.84 | 31.41 |
| Cc1cc(=O)c2c(O)c3c(cc2o1)OC(C)(C)CC3 [DIHYDROSPATHELIACHROMENE] | 116.8 | 127.1 |
| CC(C)(Sc1cc(C(C)(C)C)c(O)c(C(C)(C)C)c1)Sc1cc(C(C)(C)C)c(O)c(C(C)(C)C)c1 [PROBUCOL] | 90.56 | 102.2 |
| O=C(/C=C/c1ccccc1)c1ccc(O[C@@H]2O[C@H](CO)[C@@H](O)[C@H](O)[C@H]2O)cc1O [2',4'-DIHYDROXYCHALCONE 4'-GLUCOSIDE] | 107.4 | 99.51 |
| CCN(CCCc1ccccc1)CCCc1ccccc1.O=C(O)CC(O)(CC(=O)O)C(=O)O [ALVERINE CITRATE] | 74.4 | 48.34 |
| CC(C)c1c(O)ccc2c1CC[C@H]1C(C)(C)CCC[C@]21C [TOTAROL] | 131.3 | 159.4 |
| CN1Cc2c(N)cccc2C(c2ccccc2)C1.O=C(O)/C=C\C(=O)O (configuration not stated) [NOMIFENSINE MALEATE] | 79.07 | 59.46 |
| C=CCc1ccccc1OCC(O)CNC(C)C (configuration not stated) [ALPRENOLOL] | 120.6 | 89.01 |
| O=C1C=CC(=O)c2c(O)cccc21 [JUGLONE] | 93.79 | 66.93 |
| Cc1ccsc1/C=C/C1=NCCCN1C.O=C(O)CC(O)(CC(=O)O)C(=O)O [MORANTEL CITRATE] | 103.6 | 115.3 |
| COc1cccc2c1cc([N+](=O)[O-])c1c(C(=O)O)cc3c(c12)OCO3 [ARISTOLOCHIC ACID] | 107.6 | 76.91 |
| CC(C)(C#N)O[C@@H]1O[C@H](CO)[C@@H](O)[C@H](O)[C@H]1O [LINAMARIN] | 97.67 | 131.3 |
| Oc1c(Cl)c(Cl)c(Cl)c(Cl)c1Cl [PENTACHLOROPHENOL] | 40.68 | 19.96 |
| O=c1c(O)cccc2c([C@H]3Oc4cc(O)cc(O)c4C[C@H]3O)cc(O)c(O)c12 [THEAFLAVANIN] | 85.59 | 60 |
| O=[N+]([O-])NC1=NCCN1Cc1ccc(Cl)nc1 [IMIDACLOPRID] | 90.03 | 73.94 |
| NC(=O)N1c2ccccc2C=Cc2ccccc21 [CARBAMAZEPINE] | 99.43 | 121.6 |
| C[C@]12CCC(=O)C(O)=C1CC[C@@H]1[C@@H]2CC[C@]2(C)C(=O)CC[C@@H]12 [FORMESTANE] | 106.1 | 81.74 |
| C=C(C)[C@H]1COc2cc3oc(=O)ccc3cc2O1 [OBLIQUIN] | 103.6 | 112.3 |

| Compound | residual activity [1] [%] | residual activity [2] [%] |
| --- | --- | --- |
| C[C@H](N)[C@H](O)c1ccccc1 [(1R,2S)-PHENYLPROPANOLAMINE] | 87 | 97.41 |
| C/C=C(/C(=C/C)c1ccc(O)cc1)c1ccc(O)cc1 [DIENESTROL] | 61.94 | 48.7 |
| O=C(/C=C/C=C/c1ccc2c(c1)OCO2)N1CCCCC1 [PIPERINE] | 97.82 | 186.2 |
| COc1ccc(C[C@H]2NC[C@H](O)[C@H]2OC(C)=O)cc1 [ANISOMYCIN] | 81.11 | 81.33 |
| C[C@@H]1CC[C@H]2C(C)(C)[C@H]3C[C@@]12CC[C@@]3(C)O [CEDROL] | 107.7 | 119.8 |
| N=C(N)NCCCCNC(=N)N.O=S(=O)(O)O [ARCAINE SULFATE] | 96.72 | 78.37 |
| CC[C@H](C)[C@H](N)C1=N[C@H](C(=O)N[C@@H](CC(C)C)C(=O)N[C@H](CCC(=O)O)C(=O)N[C@H](C(=O)N[C@H]2CCCCNC(=O)[C@H](CC(N)=O)NC(=O)[C@@H](CC(=O)O)NC(=O)[C@H](Cc3cnc[nH]3)NC(=O)[C@@H](Cc3ccccc3)NC(=O)[C@H]([C@@H](C)CC)NC(=O)[C@@H](CCCN)NC2=O)[C@@H](C)CC)CS1 [BACITRACIN] ({Ileψ(thiazoline)Cys}-L[dE]IK[dOrn]I[dF]H[dD]N; lactam 4-C) | 77.52 | 78.2 |
| CC(C)N(C(=O)SCC(Cl)=C(Cl)Cl)C(C)C [TRIALLATE] | 109.6 | 119.9 |
| CC1(C)O[C@@H]2C[C@H]3[C@@H]4CCC5=CC(=O)C=C[C@]5(C)[C@@]4(F)[C@@H](O)C[C@]3(C)[C@]2(C(=O)CO)O1 [TRIAMCINOLONE ACETONIDE] | 115.5 | 128.1 |
| CC(CN1c2ccccc2Sc2ccccc21)N(C)C.Cl (configuration not stated) [PROMETHAZINE HYDROCHLORIDE] | 86.93 | 69.15 |
| C[n+]1c2cc(N)ccc2cc2ccc(N)cc21.[Cl-] [EUFLAVINE] | 93.94 | 105.1 |
| C[C@]12CC[C@@H]3c4ccc(OS(=O)(=O)[O-])cc4CC[C@H]3[C@@H]1CC[C@@H]2O.[Na+] | 95.65 | 53.18 |
| COc1cccc(/C=C/C(=O)O)c1C(C)C [2-ISOPROPYL-3-METHOXYCINNAMIC ACID] | 87.92 | 137.6 |
| O=C1C[C@@H](c2ccc(O)cc2)Oc2cc(O)cc(O)c21 [NARINGENIN] | 95.55 | 96.26 |
| COC(=O)[C@H](Cc1ccccc1)NC(=O)[C@@H](N)CC(=O)O | 115 | 85.37 |
| COc1cc(OC)c2c(c1Cl)O[C@@]1(C(=O)CC(=O)C[C@H]1C)C2=O | 85.63 | 81.69 |
| CC(=O)NCCCCCC(=O)O [ACEXAMIC ACID] | 111.3 | 144.2 |
| Cl.NCCc1ccc(O)c(O)c1 [DOPAMINE HYDROCHLORIDE] | 73.49 | 66.46 |
| CO/N=C(\C(=O)N[C@@H]1C(=O)N2C(C(=O)[O-])=C(COC(C)=O)CS[C@H]12)c1csc(N)n1.[Na+] [CEFOTAXIME SODIUM] | 119.2 | 104.1 |
| CC(=O)O[C@H]1CC[C@@]2(C)[C@H](CC[C@@H]3[C@@H]2CC[C@]2(C)[C@@H]4[C@H](C[C@@H]32)O[C@]2(CC[C@@H](C)CO2)[C@H]4C)C1 | 92.75 | 103.6 |
